These results are taken from article PMC8058344, “ARIH1 signaling promotes anti-tumor immunity by targeting PD-L1 for proteasomal degradation” (Nature Communications, 2021).

SMILES strings stand for the structures.

As usually defined, the IC50 is the concentration needed to halve the response being measured.

Test [1] has as its system PD-L1 in H1975 cells. Briefly: PD-L1 levels in H1975 cells by immunoblotting and flow cytometry. The conditions noted are these: H1975 cells, 10 μM ES-072 for 12 h. The format is cell-based, human. How it is done:
Fig. 1 EGFR inhibitors were screened to reduce membrane PD-L1 levels. a High-throughput screening of 2125 FDA-approved drugs or drug candidates. U937 cells were incubated with IFNγ (100 ng/mL) for 48 h, treated with the drugs at 10 μM for 12 h. Ruxolitinib (Rux) was used as a positive control. The hit compounds that induced the decrease of PD-L1 levels are shown in blue. The depth of blue represents decreased level of PD-L1. The heatmap represents the targeted pathways obtained from the high-throughput screening, based upon decreased membrane PD-L1 level detected by flow cytometry. b Immunoblotting of PD-L1 in U937 cells treated with ES-072 (ES) or AZD9291 (AZD) at indicated concentrations for 12 h. ES and AZD are EGFR inhibitors. c, d Median fluorescence intensity (MFI) (c) and relative quantification (d) of PD-L1 in U937 cells treated with 10 μM ES-072 or 10 μM AZD9291 for 12 h. Data represent means ± SEM, n = 18, 6 independent repeats, ****P < 0.0001. e–g Immunoblotting (e, f) and flow cytometry (g) analysis of PD-L1 levels in U937 cells treated with 10 μM ES-072 or 10 μM AZD9291 for the indicated times. h, i Immunoblottings (h) of PD-L1 and β-TrCP, relative quantification (i) of PD-L1 MFI in H1975 cells transfected with non-targeting siRNA (si-CTRL) or β-TrCP siRNAs (si-β-TrCP) and treated with or without 10 μM ES-072/AZD9291 for 12 h. Data represent means ± SEM, n = 9, 3 independent repeats, NS: no significant; ****P < 0.0001. j–l Immunoblotting (j) and flow cytometry analysis (k) with relative quantification (l) of PD-L1 in H1975 cells treated with 10 μM ES-072 or AZD9291, and/or 5 μM LY2090314 (LY) for 12 h. […]
Fig. 5 GSK3α-mediated phosphorylation of PD-L1 promotes PD-L1-ARIH1 interaction and ARIH1-induced degradation. a Co-IP analysis for the interaction of K48-ubiquitin, ARIH1 (HA), and PD-L1 in HEK293T cells transfected with HA-ARIH1 and Flag-PD-L1 (WT, S279A, S283A, or 2SA), treated with MG132 (10 μM) for 6 h; HA-tagged empty vector (HA-EV) was transfected as a negative control. b Co-IP analysis for the interaction of ARIH1 and PD-L1 in HEK293T cells transfected with HA-ARIH1 and Flag-PD-L1 (WT or 2SA), treated with 10 μM ES-072 for 24 h, Flag-tagged empty vector (Flag-EV) was transfected as a negative control. c HEK293T cells were transfected with Flag-PD-L1. Co-IP analysis for the interaction of ubiquitin and PD-L1 in HEK293T cells transfected with ARIH1-siRNAs or HA-GSK3α and treated with MG132 (10 μM) for 6 h; non-targeting siRNA (si-CTRL) was transfected as a negative control. d Immunoblots of PD-L1 and ARIH1 (HA) in H1975 cells transfected with HA-ARIH1, treated with or without 5 μM LY for 6 h. e, f MFI (e) and relative quantification (f) of PD-L1 in HA-ARIH1-overexpressed H1975 cells, treated with or without 5 μM LY for 6 h. […]
Background: In western blotting, separated proteins are transferred to a membrane and probed.

Test [2] concerns the target EGFR T790M (Homo sapiens, UniProt P00533, T790M). As to the kind of experiment: In vitro kinase specificity profiling. The format is biochemical.
Test [3] addresses EGFR L858R (Homo sapiens, UniProt P00533, L858R). As to the kind of experiment: In vitro kinase specificity profiling. It counts as biochemical.

EGFR T790M, sequence (P00533 25-1210 T790M): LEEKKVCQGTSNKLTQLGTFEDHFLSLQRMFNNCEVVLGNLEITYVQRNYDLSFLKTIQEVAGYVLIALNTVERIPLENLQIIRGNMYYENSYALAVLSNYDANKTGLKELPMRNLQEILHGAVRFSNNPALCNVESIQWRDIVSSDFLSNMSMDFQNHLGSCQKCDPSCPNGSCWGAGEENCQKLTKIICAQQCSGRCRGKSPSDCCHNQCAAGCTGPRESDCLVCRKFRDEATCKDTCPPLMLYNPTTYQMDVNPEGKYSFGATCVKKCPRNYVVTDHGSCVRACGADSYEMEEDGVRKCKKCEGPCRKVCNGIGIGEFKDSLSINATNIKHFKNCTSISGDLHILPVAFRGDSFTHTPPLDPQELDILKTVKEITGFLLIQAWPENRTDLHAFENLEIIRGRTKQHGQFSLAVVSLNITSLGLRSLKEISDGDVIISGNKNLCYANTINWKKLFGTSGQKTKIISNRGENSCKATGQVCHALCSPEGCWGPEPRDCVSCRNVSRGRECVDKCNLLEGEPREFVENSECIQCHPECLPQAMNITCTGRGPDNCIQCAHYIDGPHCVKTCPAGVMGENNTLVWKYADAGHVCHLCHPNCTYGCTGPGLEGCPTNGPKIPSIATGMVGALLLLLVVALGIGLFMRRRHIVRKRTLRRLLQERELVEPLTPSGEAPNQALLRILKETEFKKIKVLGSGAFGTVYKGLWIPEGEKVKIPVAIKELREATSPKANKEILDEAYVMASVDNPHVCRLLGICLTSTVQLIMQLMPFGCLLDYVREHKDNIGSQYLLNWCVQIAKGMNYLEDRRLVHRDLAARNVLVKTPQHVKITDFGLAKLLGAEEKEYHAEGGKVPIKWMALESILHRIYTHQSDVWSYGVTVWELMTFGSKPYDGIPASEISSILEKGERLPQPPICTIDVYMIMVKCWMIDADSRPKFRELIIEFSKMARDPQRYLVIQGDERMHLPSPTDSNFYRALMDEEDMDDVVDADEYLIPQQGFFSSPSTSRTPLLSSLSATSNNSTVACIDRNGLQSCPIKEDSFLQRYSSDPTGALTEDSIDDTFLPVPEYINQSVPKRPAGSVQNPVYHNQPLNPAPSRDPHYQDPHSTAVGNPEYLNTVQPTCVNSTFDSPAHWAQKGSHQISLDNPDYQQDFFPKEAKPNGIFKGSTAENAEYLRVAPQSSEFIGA
EGFR L858R, sequence (P00533 25-1210 L858R): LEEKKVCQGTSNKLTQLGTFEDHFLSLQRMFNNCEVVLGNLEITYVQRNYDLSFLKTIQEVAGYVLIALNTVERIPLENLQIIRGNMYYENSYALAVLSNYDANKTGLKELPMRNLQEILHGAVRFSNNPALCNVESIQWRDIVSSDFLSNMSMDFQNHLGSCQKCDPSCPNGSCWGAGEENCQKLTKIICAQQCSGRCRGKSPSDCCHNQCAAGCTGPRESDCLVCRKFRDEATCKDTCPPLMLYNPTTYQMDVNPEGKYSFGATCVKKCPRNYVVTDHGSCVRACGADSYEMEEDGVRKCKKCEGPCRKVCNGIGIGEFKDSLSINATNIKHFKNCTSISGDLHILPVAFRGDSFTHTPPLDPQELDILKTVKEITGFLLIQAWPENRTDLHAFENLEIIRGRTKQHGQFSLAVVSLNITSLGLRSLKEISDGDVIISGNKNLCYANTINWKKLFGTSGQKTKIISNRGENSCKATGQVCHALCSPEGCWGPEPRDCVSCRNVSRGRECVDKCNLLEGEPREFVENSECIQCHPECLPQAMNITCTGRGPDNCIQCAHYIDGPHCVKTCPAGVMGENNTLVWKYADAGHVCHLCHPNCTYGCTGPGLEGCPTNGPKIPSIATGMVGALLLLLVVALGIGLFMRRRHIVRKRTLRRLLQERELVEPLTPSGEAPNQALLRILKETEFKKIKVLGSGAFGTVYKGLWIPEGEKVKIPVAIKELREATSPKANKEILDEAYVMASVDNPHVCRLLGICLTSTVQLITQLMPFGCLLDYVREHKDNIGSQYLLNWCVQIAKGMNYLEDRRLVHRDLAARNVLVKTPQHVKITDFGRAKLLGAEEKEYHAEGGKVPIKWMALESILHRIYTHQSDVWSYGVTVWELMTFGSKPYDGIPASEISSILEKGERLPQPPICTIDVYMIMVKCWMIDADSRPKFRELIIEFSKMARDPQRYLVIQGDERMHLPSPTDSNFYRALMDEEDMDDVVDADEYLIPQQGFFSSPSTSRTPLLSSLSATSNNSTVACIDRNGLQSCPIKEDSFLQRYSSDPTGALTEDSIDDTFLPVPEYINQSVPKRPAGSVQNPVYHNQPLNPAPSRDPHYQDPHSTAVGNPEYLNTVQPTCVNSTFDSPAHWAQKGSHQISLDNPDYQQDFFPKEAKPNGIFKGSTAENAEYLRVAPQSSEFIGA

In the case of `C=CC(=O)Nc1cccc(Nc2nc(Nc3ccc(N4CCN(C)CC4)nc3OC)ncc2C(F)(F)F)c1` [ES-072], the “PD-L1 level in whole cell lysate (WCL) and outer membrane protein (OMP)” value in test [1] was “decreased”. Also, the IC50 was less than 0.5 nM in test [2] and 2.7 nM in test [3].
